Earlier results in patent publication US20100286187A1, “METHOD OF PREDICTING SURVIVAL OF A NON-SMALL-CELL LUNG CANCER PATIENT TO A CHEMOTHERAPEUTIC TREATMENT” (PANGAEA BIOTECH S.A., priority 2006, published 2010).

What was measured:
[1] = test system: non-small cell lung cancer (NSCLC) patients; conditions: single agent, previously untreated NSCLC patients
[2] = test system: non-small cell lung cancer (NSCLC); conditions: randomized study, per arm

In the case of `CC(=O)O[C@@]12CO[C@@H]1C[C@H](O)[C@@]1(C)C(=O)[C@H](O)C3=C(C)[C@@H](OC(=O)[C@H](O)[C@@H](NC(=O)OC(C)(C)C)c4ccccc4)C[C@@](O)([C@@H](OC(=O)c4ccccc4)[C@H]21)C3(C)C` [Docetaxel], the Response rates [1] is listed as 21-38%.
In the case of paclitaxel/carboplatin, the Median survival [2] is given as 8.2 months.
